# Test results from patent publication US8940897B2, “1,3,4-oxadiazole and 1,3,4-thiadiazole β-lactamase inhibitors” (priority 2012, dated 2015).
# Structures can show the parent of a compound that is named as a salt.
# Legend:
# [1] = test system: bacterial strains that express KPC β-lactamases; experiment: Synergy MIC / standard BLI potentiation MIC assay, strains expressing KPC β-lactamases; format: cell-based; details: for at least one KPC strain and/or a better spectrum of activity against KPC strains than Avibactam; in the presence of a β-lactam
# Experimental: Unless otherwise indicated, the activity of the BLI compounds can be described by the MIC value obtained from a Synergy MIC assay or a BLI potentiation assay (e.g as described herein), both of which are run in the presence of a β-lactam.
# The experimental protocol was performed according to Clinical and Laboratory Standards Institute (CLSI) guidelines with modifications as described below (CLSI guidelines can be derived from the CLSI document M07-A9 published in January 2012: “Methods for Dilution Antimicrobial Susceptibility Tests for Bacteria That Grow Aerobically; Approved Standard-Ninth Edition”).
# To prepare for MIC testing, frozen glycerol stocks of clinical isolates (Klebsiella pneumoniae, Eschericia coli, Enterobacter spp, Citrobacter spp, or Pseudomonas aeruginosa) were used to streak for isolated colonies on rich, non-selective, tryptic soy agar containing 5% sheep's blood (TSAB). Frozen glycerol stocks of laboratory engineered, isogenic E. coli strains, which contain cloned β-lactamase expressing plasmids were used to streak for isolated colonies on rich, selective LB agar supplemented with 25 μg/mL tetracycline to maintain the plasmid. All strains were incubated at 37° C. for 18-24 hrs.
# On the day of testing, primary cultures were started by scraping off 5-10 colonies from the TSAB plates containing clinical strains or the tetracycline supplemented LB plates containing engineered strains. The clinical strain material was suspended in ˜5 mL of cation adjusted Mueller Hinton Broth (CAMHB) in 14 mL culture tubes. The engineered strain material was suspended in CAMHB (supplemented with 25 μg/mL tetracycline) in 14 mL culture tubes. All strains were incubated at 37° C. with aeration (200 rpm) for ˜2 hrs until the optical density at 600 nm (OD600) was ≧0.1.
# The two compound components of the assay were each diluted in CAMHB and added to the 96-well broth microdilution assay plates. 50 μL of the β-lactam was added to each well of the assay plate in 2-fold dilutions with final concentrations ranging from 128 to 0.13 μg/mL. 25 μL of the BLI compound was added to all wells in the broth microdilution plates at a final concentration of 4 μg/mL. Inoculum cultures were prepared by standardizing the primary cultures to OD600=0.1 and then adding 20 μL of the adjusted primary culture per 1 mL CAMHB for clinical strains or CAMHB (supplemented with tetracycline at 100 μg/mL) for engineered strains, so that the final inoculum density was ˜10^5 colony forming units per milliliter. Diluted inoculum cultures were used to inoculate 25 μl, per well in 96-well broth microdilution assay plates. The final volume of each well was 100 μL and contained a β-lactam at different concentrations, a BLIcompound at 4 μg/mL concentration, the bacterial culture at an OD600 of approximately 0.001 and when necessary tetracycline at 25 μg/mL.
# Plates were incubated for 18-20 hours at 37° C. with aeration (200 rpm). Following incubation, growth was confirmed visually placing plates over a viewing apparatus (stand with a mirror underneath) and then OD600 was measured using a SpectraMax 340PC384 plate reader (Molecular Devices, Sunnyvale, Calif.). Growth was defined as turbidity that could be detected with the naked eye or achieving minimum OD600 of 0.1. MIC values were defined as the lowest concentration producing no visible turbidity.
# The synergy MIC (sMIC) assay determines the concentration of the BLI required to potentiate the activity of a fixed concentration of a β-lactam antibiotic against β-lactamase producing bacterial strains. The experimental protocol was performed according to Clinical and Laboratory Standards Institute (CLSI) guidelines with modifications as described below (CLSI guidelines can be derived from the CLSI document M07-A9 published in January 2012: “Methods for Dilution Antimicrobial Susceptibility Tests for Bacteria That Grow Aerobically; Approved Standard-Ninth Edition”). […]
# [2] = test system: bacterial strains that express the class D cephalosporinase OXA-15; experiment: Synergy MIC / standard BLI potentiation MIC assay, strains expressing OXA-15;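 further: more active means a lower MIC or sMIC than Avibactam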; format: cell-based, E. coli; details: in the presence of a β-lactam; comparator Avibactam (CCC)
# Outline: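 CLSI broth microdilution in CAMHB, ~10^5 CFU/mL, 18–20 h at 37 °C with aeration; engineered E. coli kept on 25 μg/mL tetracycline. Potentiation: β-lactam 128–0.13 μg/mL with BLI fixed at 4 μg/mL; synergy MIC: BLI serially diluted with fixed β-lactam. MIC is the lowest concentration without visible turbidity.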
Compound,activity against bacterial strains that express KPC β-lactamase compared with Avibactam [1],activity against bacterial strains that express OXA-15 β-lactamase compared with Avibactam [2]
"CC(C)(N)Cc1nnc([C@@H]2CC[C@@H]3CN2C(=O)N3OS(=O)(=O)O)o1 [Compound 737, (2S,5R)-2-(5-(2-amino-2-methylpropyl)-1,3,4-oxadiazol-2-yl)-7-oxo-1,6-diazabicyclo[3.2.1]octan-6-yl hydrogen sulfate]",more active than Avibactam,more active than Avibactam
"N=C(N)Nc1nnc([C@@H]2CC[C@@H]3CN2C(=O)N3OS(=O)(=O)O)o1 [Compound 738, (2S,5R)-2-(5-guanidino-1,3,4-oxadiazol-2-yl)-7-oxo-1,6-diazabicyclo[3.2.1]octan-6-yl hydrogen sulfate]",more active than Avibactam,more active than Avibactam
"N=C(N)NC1(Cc2nnc([C@@H]3CC[C@@H]4CN3C(=O)N4OS(=O)(=O)O)o2)CC1 [Compound 739, (2S,5R)-2-(5-((1-guanidinocyclopropyl)methyl)-1,3,4-oxadiazol-2-yl)-7-oxo-1,6-diazabicyclo[3.2.1]octan-6-yl hydrogen sulfate]",more active than Avibactam,more active than Avibactam
"O=C1N2C[C@@H](CC[C@H]2c2nnc([C@H]3[C@@H]4CNC[C@@H]43)o2)N1OS(=O)(=O)O [Compound 740, (2S,5R)-2-(5-(3-azabicyclo[3.1.0]hexan-6-yl)-1,3,4-oxadiazol-2-yl)-7-oxo-1,6-diazabicyclo[3.2.1]octan-6-yl hydrogen sulfate]",more active than Avibactam,more active than Avibactam
"N=C(N)N1CC(Cc2nnc([C@@H]3CC[C@@H]4CN3C(=O)N4OS(=O)(=O)O)o2)C1 [Compound 741, (2S,5R)-2-(5-((1-carbamimidoylazetidin-3-yl)methyl)-1,3,4-oxadiazol-2-yl)-7-oxo-1,6-diazabicyclo[3.2.1]octan-6-yl hydrogen sulfate]",more active than Avibactam,more active than Avibactam
"O=C1N2C[C@@H](CC[C@H]2c2nnc(CCC3CNC3)o2)N1OS(=O)(=O)O [Compound 742, (2S,5R)-2-(5-(2-(azetidin-3-yl)ethyl)-1,3,4-oxadiazol-2-yl)-7-oxo-1,6-diazabicyclo[3.2.1]octan-6-yl hydrogen sulfate]",more active than Avibactam,more active than Avibactam
"O=C1N2C[C@@H](CC[C@H]2c2nnc(CCCC3CNC3)o2)N1OS(=O)(=O)O [Compound 743, (2S,5R)-2-(5-(3-(azetidin-3-yl)propyl)-1,3,4-oxadiazol-2-yl)-7-oxo-1,6-diazabicyclo[3.2.1]octan-6-yl hydrogen sulfate]",more active than Avibactam,more active than Avibactam
"O=C1N2C[C@@H](CC[C@H]2c2nnc(COC3CNC3)o2)N1OS(=O)(=O)O [Compound 744, (2S,5R)-2-(5-((azetidin-3-yloxy)methyl)-1,3,4-oxadiazol-2-yl)-7-oxo-1,6-diazabicyclo[3.2.1]octan-6-yl hydrogen sulfate]",more active than Avibactam,more active than Avibactam
